# Measurements reported in PubChem BioAssay AID1963960 (Molecular Pharmacology Branch, DTP, NCI, 2024).
# Tested on: MDA-MB-468 spheroids with HUVEC/MSC, viability
# Assay: Anticancer human tumor MDA-MB-468 cell line growth inhibition [PI3K];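 further: spheroids exposed to agents for seven days before readout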;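 on viability, T/C: 100% = DMSO vehicle control viability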
# Conditions: for IC50: curve of first compound; for viability, T/C: stronger effect = lower value
# Summary of the method: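 High-throughput combination screen: PI3K inhibitors crossed with targeted small molecules on complex spheroids of tumor cells, HUVEC and MSCs at 37 degrees C, 5% CO2. Top concentration was at or near clinical Cmax (otherwise 10 microM), with half-log decrements.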
# [1] = second compound 0.0316 µM, first compound 0.0316 µM
# [2] = second compound 0.0316 µM, first compound 0.1 µM
# [3] = second compound 0.0316 µM, first compound 0.316 µM
# [4] = second compound 0.0316 µM, first compound 1 µM
# [5] = second compound 0.0316 µM, first compound 3.16 µM
# [6] = second compound 0.0316 µM, first compound 10 µM
# [7] = second compound 0.1 µM, first compound 0.0316 µM
# [8] = second compound 0.1 µM, first compound 0.1 µM
# [9] = second compound 0.1 µM, first compound 0.316 µM
# [10] = second compound 0.1 µM, first compound 1 µM
# [11] = second compound 0.1 µM, first compound 3.16 µM
# [12] = second compound 0.1 µM, first compound 10 µM
# [13] = second compound 0.316 µM, first compound 0.0316 µM
# [14] = second compound 0.316 µM, first compound 0.1 µM
# [15] = second compound 0.316 µM, first compound 0.316 µM
# [16] = second compound 0.316 µM, first compound 1 µM
# [17] = second compound 0.316 µM, first compound 3.16 µM
# [18] = second compound 0.316 µM, first compound 10 µM
# [19] = second compound 1 µM, first compound 0.0316 µM
# [20] = second compound 1 µM, first compound 0.1 µM
# [21] = second compound 1 µM, first compound 0.316 µM
# [22] = second compound 1 µM, first compound 1 µM
# [23] = second compound 1 µM, first compound 3.16 µM
# [24] = second compound 1 µM, first compound 10 µM
# [25] = second compound 3.16 µM, first compound 0.0316 µM
# [26] = second compound 3.16 µM, first compound 0.1 µM
# [27] = second compound 3.16 µM, first compound 0.316 µM
# [28] = second compound 3.16 µM, first compound 1 µM
# [29] = second compound 3.16 µM, first compound 3.16 µM
# [30] = second compound 3.16 µM, first compound 10 µM
# [31] = second compound 10 µM, first compound 0.0316 µM
# [32] = second compound 10 µM, first compound 0.1 µM
# [33] = second compound 10 µM, first compound 0.316 µM
# [34] = second compound 10 µM, first compound 1 µM
# [35] = second compound 10 µM, first compound 3.16 µM
# [36] = second compound 10 µM, first compound 10 µM
structure (smiles),measurement,setting,value
CC(C)NCC(C(=O)N1CCN(c2ncnc3c2C(C)CC3O)CC1)c1ccc(Cl)cc1 (stereo unspecified) + CC(Nc1ncnc2nc[nH]c12)c1cc2cccc(Cl)c2c(=O)n1-c1ccccc1,IC50,second compound 0.0316 µM,1.17 µM
same,IC50,second compound 0.1 µM,1.01 µM
same,IC50,second compound 0.316 µM,1.22 µM
same,IC50,second compound 1 µM,0.654 µM
same,IC50,second compound 3.16 µM,0.26 µM
same,IC50,second compound 10 µM,< 0.0316 µM
same,"viability, T/C",[1],97.6%
same,"viability, T/C",[2],86.2%
same,"viability, T/C",[3],76.4%
same,"viability, T/C",[4],50.4%
same,"viability, T/C",[5],36%
same,"viability, T/C",[6],25.7%
same,"viability, T/C",[7],78.1%
same,"viability, T/C",[8],87.9%
same,"viability, T/C",[9],77.5%
same,"viability, T/C",[10],48.3%
same,"viability, T/C",[11],38.5%
same,"viability, T/C",[12],25.8%
same,"viability, T/C",[13],73.1%
same,"viability, T/C",[14],80.2%
same,"viability, T/C",[15],76.9%
same,"viability, T/C",[16],51.2%
same,"viability, T/C",[17],38.5%
same,"viability, T/C",[18],27.4%
same,"viability, T/C",[19],72.2%
same,"viability, T/C",[20],64.9%
same,"viability, T/C",[21],59.1%
same,"viability, T/C",[22],46.4%
same,"viability, T/C",[23],29.9%
same,"viability, T/C",[24],27%
same,"viability, T/C",[25],57.5%
same,"viability, T/C",[26],57.7%
same,"viability, T/C",[27],47%
same,"viability, T/C",[28],40.8%
same,"viability, T/C",[29],32.6%
same,"viability, T/C",[30],25.6%
same,"viability, T/C",[31],46.4%
same,"viability, T/C",[32],41.2%
same,"viability, T/C",[33],42.2%
same,"viability, T/C",[34],34.7%
same,"viability, T/C",[35],26.4%
same,"viability, T/C",[36],21.4%
CCN1CCN(Cc2ccc(Nc3ncc(F)c(-c4cc(F)c5nc(C)n(C(C)C)c5c4)n3)nc2)CC1 + COc1c(OCCCN2CCOCC2)ccc2c3n(c(=NC(=O)c4cnc(N)nc4)nc12)CCN3,IC50,second compound 0.00316 µM,> 1 µM
same,IC50,second compound 0.01 µM,> 1 µM
same,IC50,second compound 0.0316 µM,> 1 µM
same,IC50,second compound 0.1 µM,> 1 µM
same,IC50,second compound 0.316 µM,< 0.00316 µM
same,IC50,second compound 1 µM,< 0.00316 µM
same,"viability, T/C","second compound 0.00316 µM, first compound 0.00316 µM",96.9%
same,"viability, T/C","second compound 0.00316 µM, first compound 0.01 µM",90.8%
same,"viability, T/C","second compound 0.00316 µM, first compound 0.0316 µM",88.2%
same,"viability, T/C","second compound 0.00316 µM, first compound 0.1 µM",96.8%
same,"viability, T/C","second compound 0.00316 µM, first compound 0.316 µM",99.5%
same,"viability, T/C","second compound 0.00316 µM, first compound 1 µM",69.9%
same,"viability, T/C","second compound 0.01 µM, first compound 0.00316 µM",85.3%
same,"viability, T/C","second compound 0.01 µM, first compound 0.01 µM",88.8%
same,"viability, T/C","second compound 0.01 µM, first compound 0.0316 µM",82%
same,"viability, T/C","second compound 0.01 µM, first compound 0.1 µM",88.8%
same,"viability, T/C","second compound 0.01 µM, first compound 0.316 µM",84.2%
same,"viability, T/C","second compound 0.01 µM, first compound 1 µM",54.4%
same,"viability, T/C","second compound 0.0316 µM, first compound 0.00316 µM",77%
same,"viability, T/C","second compound 0.0316 µM, first compound 0.01 µM",72.2%
same,"viability, T/C",[1],77.5%
same,"viability, T/C",[2],73.6%
same,"viability, T/C",[3],81.4%
same,"viability, T/C",[4],66.1%
same,"viability, T/C","second compound 0.1 µM, first compound 0.00316 µM",56.6%
same,"viability, T/C","second compound 0.1 µM, first compound 0.01 µM",72.4%
same,"viability, T/C",[7],61.9%
same,"viability, T/C",[8],59%
same,"viability, T/C",[9],64%
same,"viability, T/C",[10],40.3%
same,"viability, T/C","second compound 0.316 µM, first compound 0.00316 µM",26.9%
same,"viability, T/C","second compound 0.316 µM, first compound 0.01 µM",25.1%
same,"viability, T/C",[13],28.1%
same,"viability, T/C",[14],29.9%
same,"viability, T/C",[15],31.7%
same,"viability, T/C",[16],24.4%
same,"viability, T/C","second compound 1 µM, first compound 0.00316 µM",4.09%
same,"viability, T/C","second compound 1 µM, first compound 0.01 µM",4.14%
same,"viability, T/C",[19],2.96%
same,"viability, T/C",[20],4.33%
same,"viability, T/C",[21],6.64%
same,"viability, T/C",[22],9.9%
CC(Cn1ccc(-c2ccc(C#N)c(Cl)c2)n1)NC(=O)c1cc(C(C)O)[nH]n1 (stereo unspecified) + Cc1nc(NC(=O)N2CCCC2C(N)=O)sc1-c1ccnc(C(C)(C)C(F)(F)F)c1,IC50,second compound 0.0316 µM,> 10 µM
same,IC50,second compound 0.1 µM,> 10 µM
same,IC50,second compound 0.316 µM,> 10 µM
same,IC50,second compound 1 µM,> 10 µM
same,IC50,second compound 3.16 µM,> 10 µM
same,IC50,second compound 10 µM,< 0.0316 µM
same,"viability, T/C",[1],82.4%
same,"viability, T/C",[2],93%
same,"viability, T/C",[3],88.3%
same,"viability, T/C",[4],111%
same,"viability, T/C",[5],72%
same,"viability, T/C",[6],50.6%
same,"viability, T/C",[7],89.4%
same,"viability, T/C",[8],93.9%
same,"viability, T/C",[9],79.9%
same,"viability, T/C",[10],99%
same,"viability, T/C",[11],64.6%
same,"viability, T/C",[12],55.7%
same,"viability, T/C",[13],88%
same,"viability, T/C",[14],86.5%
same,"viability, T/C",[15],80.6%
same,"viability, T/C",[16],92.2%
same,"viability, T/C",[17],61.5%
same,"viability, T/C",[18],54%
same,"viability, T/C",[19],86.3%
same,"viability, T/C",[20],71.1%
same,"viability, T/C",[21],64.1%
same,"viability, T/C",[22],70.4%
same,"viability, T/C",[23],61.2%
same,"viability, T/C",[24],50.5%
same,"viability, T/C",[25],74.4%
same,"viability, T/C",[26],54.2%
same,"viability, T/C",[27],64.4%
same,"viability, T/C",[28],61.3%
same,"viability, T/C",[29],53.4%
same,"viability, T/C",[30],49.2%
same,"viability, T/C",[31],33.4%
same,"viability, T/C",[32],28.8%
same,"viability, T/C",[33],28.4%
same,"viability, T/C",[34],29.9%
same,"viability, T/C",[35],28.3%
same,"viability, T/C",[36],21.5%
